“Also recorded” adds a separate entry of the source.
Columns and labels:
human islets = assay: Immunofluorescent confocal analysis of Adox-treated human islets; format: cell-based
Method: (§1) Human islets and islets from GlucagonCre; Rosa26EYFP bigenic mice (Herrera et al., 2000; Srinivas et al., 2001) were cultured, treated with 50μM adenosine dialdehyde (Adox, Sigma A7154) for 72 h, FACS sorted as described previously (11), or prepared for immunostaining.
Immunofluorescent confocal analysis was performed as described previously (Gao et al., Genes Dev. 2010, Jun. 15, 24(12): 1295-305). Sections were blocked with CAS-Block (Invitrogen, 00-8120) and stained using guinea pig anti-insulin 1:500 (Abcam, ab7842), rabbit anti-glucagon 1:250 (Santa Cruz, sc13091), guinea-pig anti-Pdx1 1:1000 (gift from Dr. C. Wright), mouse anti-E-Cadherin 1:500 (BD Transduction Laboratories, 610181), goat anti-GFP (Abcam, ab6673), guinea pig Cy2, guinea pig Cy5, rabbit Cy3, mouse Cy2, mouse Cy5, goat Cy3 (1:500, Jackson-Immunoresearch) antibodies. For quantification of double PDX1+/GCG+ cells, Pdx1-, Glucagon-, E-Cadherin and DAPI staining were performed on untreated (control) and Adox-treated islets. All glucagon-positive cells and all double PDX1+/GCG+ cells were counted manually (8 slides) in each condition and the percentage of PDX1+/GCG+ double-positive cells of all glucagon-positive cells was calculated.

[1] = system: islets from GlucagonCre; Rosa26EYFP mice; assay: Lineage tracing: immunostaining of Adox-treated islets from GlucagonCre; Rosa26EYFP mice; format: cell-based; conditions: mouse islets treated with Adox in vitro; not observed in control islets
Method: as §1
Immunofluorescent confocal analysis was performed as described previously (Gao et al., Genes Dev. 2010, Jun. 15, 24(12): 1295-305). […] For quantification of double PDX1+/GCG+ cells, Pdx1-, Glucagon-, E-Cadherin and DAPI staining were performed on untreated (control) and Adox-treated islets. All glucagon-positive cells and all double PDX1+/GCG+ cells were counted manually (8 slides) in each condition and the percentage of PDX1+/GCG+ double-positive cells of all glucagon-positive cells was calculated.
A priori, the co-localization of glucagon with insulin could be due to α- to β-cell fate or β- to α-cell fate conversion. […] For this purpose, islets from GlucagonCre; Rosa26EYFP mice were treated, in which α-cells are permanently marked by yellow fluorescence protein (YFP) expression (27, 28) with Adox in vitro. […]

H3K27me3 = H3K27me3 ChIP-Seq of whole human islets cultured in the absence or presence of Adox; format: cell-based
Method: Chromatin immunoprecipitation and preparation of ChIP-Seq libraries was performed on individual cell sorts for each cell type and donor (H3K4me3: Abcam 8580, H3K27me3: Upstate 07-449).
Libraries for H3K4me3, H3K27me3, and input were sequenced on an Illumina GA-IIx to 36 bp. Reads were aligned to hg18 using ELAND. Up to two mismatches were allowed and only reads with a best alignment to a single location were used for further analysis. Enrichment of H3K4me3 was performed on individual donors and cell types using GLITR (FDR=5%) (32) and a pool of human input from various tissues. GLITR was also run on islet cell input samples and any peaks identified in the inputs were filtered from the H3K4me3 enriched regions. Enriched regions in the H3K27me3 data were identified using the program STAR (33) with a sliding window of 5,000 bp, step size of 1,000 bp, and a FDR=0.5%. To ensure fair comparison, H3K4me3 and H3K27me3 profiles from CD4-positive T-cells (23) were determined using the same algorithms and settings.
as §1
The high incidence of bivalent marks in α-cells, the interesting bivalent pattern of β-cell and α-cell-specific transcription factors in α-cells, and the large overlap with bivalently-marked transcriptional regulators in hESC raised the likelihood that epigenomic manipulations could be exploited to reprogram human α-cells towards the β-cell phenotype. Several drugs, such as adenosine dialdehyde (Adox) and 3-Deazaneplanocin A (DZNep) interfere with histone methylation (24). The general histone methyltransferase inhibitor Adox, which amongst others decreases H3K27me3 levels (24), was employed to test whether modulation of the histone methylation status of human pancreatic islets could promote reprogramming. […]

human β-cells = assay: RNA-Seq of FACS-sorted β-cells from Adox-treated human islets; format: cell-based; conditions: Adox-treated β-cells (Adox-β/α vs β/α ratio)
Method: (§2) After total RNA extraction (see above), RNA-Seq libraries were prepared from sorted alpha, beta, and exocrine cells. The detailed protocol can be found on http://ngsc.med.upenn.edu (Lab protocol, Library preparation for RNA-Seq from total RNA). Libraries were single-end sequenced to 100 bp on an Illumina hiSeq2000. Reads from ribosomal RNA and genomic repeats were identified by aligning the 5′ 50 bp of each read to ribosomal sequences and the human repeats in RepBase (version 14.10) using Bowtie (Langmead B., Curr. Protoc. Bioinformatics. 201, December Chapter 11: Unit 117) and allowing for up to three mismatches. The remaining reads were processed with RUM (Grant et al., Bioinformatics 2011. Sep. 15, 27(18): 2518-28) and aligned to the set of known transcripts included in RefSeq, UCSC known genes, and ENSEMBL transcripts, and the human genome (hg18, NCBI build 36.1). Transcript-, exon-, and intron-level quantification was done using only the uniquely aligning reads. This process was repeated separately for each cell type and donor.
(§3) To analyze global gene expression profiles from each sample, RNA-seq read counts aligning to exons of mRNA transcripts in RefSeq were extracted, and these values were normalized to total uniquely aligning reads and transcript length (RPKM). Data for individual genes was summarized by selecting a “representative transcript” with the highest RPKM value for each gene symbol (total=18,822 genes). Gene-level data was then quantile-normalized across all samples to remove bias from the variable expression levels of highly expressed genes, e.g., insulin, glucagon, and highly expressed ncRNAs, which dampen the relative signal of all other genes. Finally, quantile-normalized gene expression values were averaged together for samples of the same cell type to produce a single average gene profile for each cell type. These values were used for all subsequent analyses, including expression comparisons for individual genes of interest.
as §1
(§4) To investigate the transcriptional changes in Adox-treated human islets and confirm increased PDX1 expression, FACS analysis after Adox-treatment was performed using the same antibody panel as described above, followed by RNA-Seq analysis (n=2 treated α, n=2 treated β, technical replicates) and focused on cell-type-specific hormones and transcription factors. To assess whether Adox-treated β-cells become more α-cell like or vice versa, the ratio of expression levels in untreated β-cells and untreated α-cells (β/α) were first compared to the ratio in Adox-treated β-cells and untreated α-cells (Adox-β/α) (FIG. 6E). A decrease in NKX6-1 and MAFA levels, an increase in PDX1 levels and no change in insulin expression were found and no change in the expression levels of the α-cell specific genes glucagon or ARX were observed, giving no indication for a gain of α-cell identity. Second, the ratio of expression values in untreated α-cells and untreated β-cells (α/β) were compared to the ratio in Adox-treated α-cells and untreated β-cells (Adox-α/β) to elucidate whether Adox-treated α-cells become more ‘β-cell like’ (FIG. 6F).

human α-cells = assay: RNA-Seq of FACS-sorted α-cells from Adox-treated human islets; format: cell-based; conditions: Adox-treated α-cells (Adox-α/β vs α/β ratio)
Method: as §2, §3, §1, §4

[2] = system: p16 TALE-DNMT (24-repeat TALE fused to DNMT3a-3L) (Xanthomonas TALE / DNMT3a-DNMT3L, engineered?); assay: cell_activity; conditions: HeLa transfection, 48 h, bisulfite sequencing, vs E752A mutant; up to 66.5% at individual CpGs
[3] = system: p16 jTALE-DNMT (18-repeat TALE fused to DNMT3a-3L) (Xanthomonas TALE / DNMT3a-DNMT3L, engineered?); assay: cell_activity; conditions: primary human fibroblasts, lentivirus, 4 days, vs mutant; p16 mRNA decreased about 50%; also active in HeLa and hCASMC
[4] = whole human islets, 50μM Adox 72 h vs untreated

Molecule: Nc1ncnc2c1ncn2C(C=O)OC(C=O)CO (stereo not shown) [Adox, adenosine dialdehyde]
- co-localization of glucagon and insulin granules within the same islet cell (human islets; 50μM Adox 72 h, not seen in untreated islets): occasional co-occurrence of glucagon and insulin granules within the same islet cell; also recorded: co-localization of glucagon and insulin granules within the same cell; also recorded: co-localization of glucagon and insulin granules in pancreatic cells
- PDX1 expression in glucagon-positive cells (PDX1+/GCG+ double-positive cells) (human islets; 50μM Adox 72 h vs untreated): nuclear PDX1-expression in many glucagon-positive cells; also recorded: many double-positive cells
- insulin granules in YFP+ (lineage-labeled α) cells [1]: occurrence of insulin granules in YFP+ cells
- H3K4me3-enrichment (FIG. 9A legend) (H3K27me3; human islets treated with Adox): decrease
- H3K27me3 enrichment at genes carrying a bivalent or monovalent H3K27me3 mark in all pancreatic cell populations (H3K27me3; [4]): strong decrease
- H3K27me3 enrichment at the ARX, MAFA and PDX1 loci (H3K27me3; [4]): decrease; also recorded: decreased H3K27me3 levels
- ARX expression level (human β-cells): no change
- MAFA expression level (human β-cells): decrease
- NKX6-1 expression level (human β-cells): decrease
- glucagon (GCG) expression level (human β-cells): no change
- insulin (INS) expression level (human β-cells): no change
- ARX expression level (human α-cells): increase
- MAFA expression level (human α-cells): slight decrease
- NKX6-1 expression level (human α-cells): slight decrease
- PDX1 expression level (human α-cells): increase
- glucagon (GCG) expression level (human α-cells): no change
- insulin (INS) expression level (human α-cells): no change

Molecule: CCTCCTTCCTTGCCAACGCTGGCT (double strand) [CDKN2A (p16) promoter TALE target, 24 bp]
- activity (% average increase in CpG methylation) [2]: 17

Molecule: TCCTTGCCAACGCTGGCT (double strand) [CDKN2A (p16) promoter jTALE target, 18 bp]
- activity (% average increase in CpG methylation) [3]: 10

Source: US20170056524A1, “COMPOSITIONS AND METHODS FOR TARGETED EPIGENETIC MODIFICATION” (THE TRUSTEES OF THE UNIVERSITY OF PENNSYLVANIA, priority 2014, published 2017)
